The source of these data is patent publication US10233177B2, “TRPV1 vanilloid receptor antagonists with a bicyclic portion” (Serentrix LLC, priority 2010, dated 2019).

Each structure is given as a SMILES string. Like-named read-outs stand apart in the source and are kept apart here. A value given as a limit tells only on which side of the number the result lay.

This assay has as its target TRPV1 (Rattus norvegicus (Rat), UniProt O35433). The assay can be described thus: Ca2+ fluorescence measurements in cultured rat dorsal root ganglia neurons (capsaicin-induced calcium uptake). Type of assay: cell-based. The following applies: for inhibition at 0.3 µM: DRG neuron; for inhibition at 0.3 µM / IC50: rat DRG neurons.
Setting [1] is: Table 1, formula IA-C, 300 nM against calcium uptake induced by 30 nM capsaicin, read-out: % inhibition at 300 nM.
[2] abbreviates: capsaicin-induced calcium uptake, read-out: inhibition of the calcium uptake.
[3] abbreviates: Table 1, against capsaicin-evoked [Ca2+]i mobilization, read-out: IC50.

Sequence of TRPV1 (O35433 whole entry): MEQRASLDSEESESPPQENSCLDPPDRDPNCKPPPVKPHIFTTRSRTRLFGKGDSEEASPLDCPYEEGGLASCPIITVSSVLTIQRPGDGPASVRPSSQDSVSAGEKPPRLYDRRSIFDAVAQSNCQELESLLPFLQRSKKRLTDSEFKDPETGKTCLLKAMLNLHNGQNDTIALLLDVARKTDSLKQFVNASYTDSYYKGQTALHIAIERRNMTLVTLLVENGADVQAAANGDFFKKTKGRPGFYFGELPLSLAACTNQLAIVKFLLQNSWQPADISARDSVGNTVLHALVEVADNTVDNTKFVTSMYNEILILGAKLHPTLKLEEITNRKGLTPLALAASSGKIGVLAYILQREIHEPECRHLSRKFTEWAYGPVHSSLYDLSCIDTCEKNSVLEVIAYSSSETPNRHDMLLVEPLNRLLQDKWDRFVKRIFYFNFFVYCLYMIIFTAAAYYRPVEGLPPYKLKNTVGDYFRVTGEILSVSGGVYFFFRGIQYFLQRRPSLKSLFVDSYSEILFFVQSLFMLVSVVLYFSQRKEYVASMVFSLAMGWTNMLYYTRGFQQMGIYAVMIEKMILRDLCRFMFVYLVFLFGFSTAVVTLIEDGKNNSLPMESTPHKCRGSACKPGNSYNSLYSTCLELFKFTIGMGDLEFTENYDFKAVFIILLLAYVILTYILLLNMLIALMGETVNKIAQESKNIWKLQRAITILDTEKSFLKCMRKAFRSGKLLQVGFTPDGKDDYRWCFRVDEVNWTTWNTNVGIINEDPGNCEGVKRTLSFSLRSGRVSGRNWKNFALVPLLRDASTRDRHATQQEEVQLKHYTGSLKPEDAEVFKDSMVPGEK

With `COc1cc(CNC(=O)CCCC/C=C/C(C)C)ccc1O` [Capsaicin, capsaicin, reference compound], the “dorsal root ganglia neurons with increase in [Ca2+]” value (capsaicin 0.3 μM) stood at 95%.

As to `O=C(NCc1ccc(C(F)(F)F)cc1F)Nc1cccc2[nH]c(=O)[nH]c12` [Example 2, 1-(2-fluoro-4-(trifluoromethyl)benzyl)-3-(2,3-dihydro-2-oxo-1H-benzo[d]imidazol-4-yl)urea], the inhibition at 0.3 µM under setting [1] came to 28%.

With `O=C(NCc1ccc(C(F)(F)F)cc1Cl)Nc1cccc2[nH]c(=O)[nH]c12` [Example 3, 1-(2-chloro-4-(trifluoromethyl)benzyl)-3-(2,3-dihydro-2-oxo-1H-benzo[d]imidazol-4-yl)urea], the inhibition at 0.3 µM was 93% under setting [1] and over 80% under setting [2]. As for `CN(C)c1cc(C(F)(F)F)ccc1CNC(=O)Nc1cccc2[nH]c(=O)[nH]c12` [Example 4, 1-(2-(dimethylamino)-4-(trifluoromethyl)benzyl)-3-(2,3-dihydro-2-oxo-1H-benzo[d]imidazol-4-yl)urea], the inhibition at 0.3 µM is about 100% (300 nM, read-out: abolition of capsaicin response at 300 nM); 100% under setting [1]; over 80% under setting [2]. The IC50 under setting [3] was found to be 4.07 nM and the IC50 (read-out: IC50 against capsaicin-evoked [Ca2+]i mobilization) is 4.07 nM.

`O=C(NCc1ccc(C(F)(F)F)cc1N1CCOCC1)Nc1cccc2[nH]c(=O)[nH]c12` [Example 7, 1-(4-(trifluoromethyl)-2-(4-morpholino)benzyl)-3-(2,3-dihydro-2-oxo-1H-benzo[d]imidazol-4-yl)urea]: the inhibition at 0.3 µM under setting [1] came to 33%. Still for that read-out and setting: the same measure for `O=C(NCc1ccc(C(F)(F)F)cc1-n1cncn1)Nc1cccc2[nH]c(=O)[nH]c12` [Example 8, 1-(4-(trifluoromethyl)-2-(1H-1,2,4-triazol-1-yl)benzyl)-3-(2,3-dihydro-2-oxo-1H-benzo[d]imidazol-4-yl)urea]: 2%.

On to `O=C(NCc1ccc(F)cc1)Nc1cccc2[nH]c(=O)[nH]c12` [Example 9, 1-(4-fluorobenzyl)-3-(2,3-dihydro-2-oxo-1H-benzo[d]imidazol-4-yl)urea], for which the inhibition at 0.3 µM under setting [1] was determined as 18%. For `O=C(NCc1ccc(Cl)cc1)Nc1cccc2[nH]c(=O)[nH]c12` [Example 10, 1-(4-chlorobenzyl)-3-(2,3-dihydro-2-oxo-1H-benzo[d]imidazol-4-yl)urea], the inhibition at 0.3 µM under setting [1] worked out at 89% and the inhibition at 0.3 µM under setting [2] is over 80%. Moreover, the half-inhibitory concentration (IC50) under setting [3] stood at 79 nM. `CN(C)c1cc(Cl)ccc1CNC(=O)Nc1cccc2[nH]c(=O)[nH]c12` [Example 11, 1-(4-chloro-2-(dimethylamino)benzyl)-3-(2,3-dihydro-2-oxo-1H-benzo[d]imidazol-4-yl)urea]: the inhibition at 0.3 µM runs as follows: under setting [1], 82%; under setting [2], over 80%. The IC50 under setting [3] was determined as 12 nM.

`CN(C)c1ccc(CNC(=O)Nc2cccc3[nH]c(=O)[nH]c23)cc1` [Example 14, 1-(4-(dimethylamino)benzyl)-3-(2,3-dihydro-2-oxo-1H-benzo[d]imidazol-4-yl)urea]: the inhibition at 0.3 µM under setting [1] worked out at 32%. In the case of `O=C(NCc1ccc(N2CCCC2)cc1)Nc1cccc2[nH]c(=O)[nH]c12` [Example 15, 1-(4-(pyrrolidin-1-yl)benzyl)-3-(2,3-dihydro-2-oxo-1H-benzo[d]imidazol-4-yl)urea], under setting [1], the inhibition at 0.3 µM came out at 54%. As for `O=C(NCc1ccc(N2CCCCC2)cc1)Nc1cccc2[nH]c(=O)[nH]c12` [Example 16, 1-(4-(piperidin-1-yl)benzyl)-3-(2,3-dihydro-2-oxo-1H-benzo[d]imidazol-4-yl)urea], the inhibition at 0.3 µM was 86% under setting [1] and over 80% under setting [2].

For the compound `Cc1ccc(CNC(=O)Nc2cccc3[nH]c(=O)[nH]c23)cc1` [Example 17, 1-(4-methylbenzyl)-3-(2,3-dihydro-2-oxo-1H-benzo[d]imidazol-4-yl)urea], under setting [1], the inhibition at 0.3 µM worked out at 44%.

Regarding `Cc1ccc(CNC(=O)Nc2cccc3[nH]c(=O)[nH]c23)c(N(C)C)c1` [Example 18, 1-(2-(dimethylamino)-4-methylbenzyl)-3-(2,3-dihydro-2-oxo-1H-benzo[d]imidazol-4-yl)urea], under setting [1], the inhibition at 0.3 µM was 54%.

One may read the IC50 as the point on the concentration scale where inhibition reaches its midpoint.
